According to patent US20090048269A1 (AstraZeneca AB, priority 2007, published 2009):
Where “and” joins values, the source holds several entries; their conditions need not be identical. Equal values may be shown once.

Columns and labels:
human ALK5 [1] = target: T1, human ALK5 (Homo sapiens, UniProt P36897); assay: ALK5 Enzyme Assay 1; type: biochemical; parameters: 6His tagged ALK5 protein (amino acids 162-503) expressed in insect cells; 6His; made in house; host or cells: insect cells; conditions: read-out: EAA: activity (μM) using Enzyme Assay 1
T1 sequence (P36897 162-503): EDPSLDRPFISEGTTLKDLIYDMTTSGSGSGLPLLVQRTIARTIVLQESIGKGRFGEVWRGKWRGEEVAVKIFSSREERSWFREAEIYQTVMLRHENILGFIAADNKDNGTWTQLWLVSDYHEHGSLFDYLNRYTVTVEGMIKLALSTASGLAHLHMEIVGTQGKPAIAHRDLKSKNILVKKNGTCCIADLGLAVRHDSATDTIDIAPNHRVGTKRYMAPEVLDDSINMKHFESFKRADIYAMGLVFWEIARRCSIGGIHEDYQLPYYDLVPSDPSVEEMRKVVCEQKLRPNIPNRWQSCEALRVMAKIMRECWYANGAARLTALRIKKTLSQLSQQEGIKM
Method: This assay measures the ability of a compound to bind to and inhibit the activity of ALK5 protein in vitro. […] Assay measurements were performed in assay buffer comprising 60 mM HEPES pH 7.4, 3 mM MgCl2, 3 mM MnCl2, 3 μM Na orthovanadate, 1.2 mM DTT and 0.05% PEG2000. […] Reactions were performed in the presence of 200 μg/mL casein (Sigma-Aldrich C4765-10ML), 200 ng/mL ALK5, 0.5 μM ATP (Sigma-Aldrich A7699), 1 μCi/mL γ-33P ATP. Following addition of casein, ATP and compound, reactions were initiated by adding ALK5 enzyme and reactions run for 90 minutes. After incubation reactions were terminated by addition of 20 μL per well of 50% orthophosphoric acid. 20 minutes after addition of 70% v/v TCA, precipitated protein was transferred to GF/C 96 well plates using a Tomtec harvester with 1.5% orthophosphoric acid. […] All reactions were performed under linear kinetics.

human ALK5 [2] = target: T1, human ALK5; assay: ALK5 Enzyme Assay 2 (fluorescence polarisation probe displacement); type: binding; parameters: 6His tagged human ALK5 (residues162-503) was grown and purified from insect cells; 6His; made in house; host or cells: insect cells; conditions: read-out: EAA2: activity (μM) using Enzyme Assay 2
Summary of the method: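 Recombinant ALK5 (3 μg/mL) incubated with test compound in 50 mM HEPES pH7.4, 10 mM MgCl2, 1 mM DTT, 0.01% CHAPS. Displacement of a fluorescent quinazoline-based ALK5 probe (50 nM final) in presence of 1 μM ATP read by fluorescence polarisation.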

`Cc1ccc(Oc2ccnc(Nc3ccc(C(=O)O)cc3)c2)c(C)n1` [Example 205, Lithium 4-{[4-(2,6-dimethylpyridin-3-yl)oxypyridin-2-yl]-amino}benzoate] was tested, and the IC50 (human ALK5 [1]) was 0.15 µM.
Work on `Cc1cc(Oc2ccnc(Nc3ccc(S(C)(=O)=O)cc3)c2)c(-c2ccccn2)nc1C` [Example 13, 4-(5,6-Dimethyl-2-pyridin-2-yl-pyridin-3-yl)oxy-N-(4-methylsulfonyl-phenyl)-pyridin-2-amine] yielded an IC50 (human ALK5 [2]) of 0.0103 µM and an IC50 (human ALK5 [1]) of 0.00853 µM.
With `COc1cc(Nc2cc(Oc3ccc(C)nc3-c3cscc3C)ccn2)cc(OC)c1OC` [Example 46, 4-[6-Methyl-2-(4-methylthiophen-3-yl)pyridin-3-yl]oxy-N-(3,4,5-trimethoxyphenyl)pyridin-2-amine] the IC50 (human ALK5 [2]) was 0.0175 µM and the IC50 (human ALK5 [1]) was 0.0153 µM.
Work on `Cc1cc(Oc2ccnc(Nc3cccc(F)c3)c2)c(-c2ccccn2)nc1C` [Example 29, N-(3-Fluorophenyl)-4-(5,6-dimethyl-2-pyridin-2-yl-pyridin-3-yl)-oxy-pyridin-2-amine] yielded an IC50 (human ALK5 [2]) of 0.0184 µM and an IC50 (human ALK5 [1]) of 0.0166 µM.
In the case of `COc1cccc(-c2nc(C)ccc2Oc2ccnc(Nc3cc(OC)c(OC)c(OC)c3)c2)c1` [Example 58, 4-[2-(3-Methoxy-phenyl)-6-methyl-pyridin-3-yl]oxy-N-(3,4,5-trimethoxy-phenyl)pyridin-2-amine], the IC50 (human ALK5 [2]) is reported as 0.135 µM and the IC50 (human ALK5 [1]) is reported as 0.0187 µM.
`COc1cc(Nc2cc(Oc3cccnc3Cl)ccn2)cc(OC)c1OC` [Example 53, 4-(2-Chloropyridin-3-yl)oxy-N-(3,4,5-trimethoxyphenyl)pyridin-2-amine] gave an IC50 (human ALK5 [2]) of 0.249 µM and an IC50 (human ALK5 [1]) of 0.481 µM.
`Cc1cc(Oc2ccnc(Nc3ccc(C#N)cc3)c2)c(-c2ccccn2)nc1C` [Example 34, 4-{[4-(5,6-Dimethyl-2-pyridin-2-yl-pyridin-3-yl)-oxypyridin-2-yl]amino}benzonitrile] gave an IC50 (human ALK5 [2]) of 0.0255 µM and an IC50 (human ALK5 [1]) of 0.0215 µM.
Compound `COc1cc(Nc2cc(Oc3cc(C)c(C)nc3-c3cccc(C)n3)ccn2)cc(OC)c1OC` [Example 2, 4-[5,6-Dimethyl-2-(6-methylpyridin-2-yl)pyridin-3-yl]oxy-N-(3,4,5-trimethoxy-phenyl)pyridin-2-amine] has an IC50 (human ALK5 [2]) of 0.0723 µM and an IC50 (human ALK5 [1]) of 0.0337 µM.
Work on `Cc1cc(Oc2ccnc(Nc3ccncc3)c2)c(-c2ccccn2)nc1C` [Example 36, 4-(5,6-Dimethyl-2-pyridin-2-yl-pyridin-3-yl)oxy-N-pyridin-4-yl-pyridin-2-amine] yielded an IC50 (human ALK5 [2]) of 0.0515 µM and an IC50 (human ALK5 [1]) of 0.0632 µM.
`Cc1cc(Oc2ccnc(Nc3cc(F)ccc3F)c2)c(-c2ccccn2)nc1C` [Example 31, N-(2,5-Difluorophenyl)-4-(5,6-dimethyl-2-pyridin-2-yl-pyridin-3-yl)-oxy-pyridin-2-amine] gave an IC50 (human ALK5 [2]) of 0.0312 µM and an IC50 (human ALK5 [1]) of 0.0274 µM.
For `Cc1cc(Oc2ccnc(Nc3ccn(C)n3)c2)c(-c2ccccn2)nc1C` [Example 39, 4-(5,6-Dimethyl-2-pyridin-2-yl-pyridin-3-yl)oxy-N-(1-methylpyrazol-3-yl)-pyridin-2-amine], the IC50 (human ALK5 [1]) was 0.0935 µM.
With `COc1ccc(NC(C)=O)cc1Nc1cc(Oc2cc(C)c(C)nc2-c2ccccn2)ccn1` [Example 73, N-(3-{[4-(5,6-Dimethyl-2-pyridin-2-ylpyridin-3-yl)oxypyridin-2-yl]-amino}-4-methoxyphenyl)acetamide] the IC50 (human ALK5 [1]) was 0.454 µM.
With `Cc1cc(Oc2ccnc(Nc3ccc4cc[nH]c4c3)c2)c(-c2ccccn2)nc1C` [Example 40, N-[4-(5,6-Dimethyl-2-pyridin-2-yl-pyridin-3-yl)-oxypyridin-2-yl]-1H-indol-6-amine] the IC50 (human ALK5 [1]) was 1.14 µM and 1.11 µM.
Work on `Cc1cc(Oc2ccnc(Nc3ccccc3Cl)c2)c(-c2ccccn2)nc1C` [Example 194B, N-(2-Chlorophenyl)-4-(5,6-dimethyl-2-pyridin-2-ylpyridin-3-yl)-oxypyridin-2-amine] yielded an IC50 (human ALK5 [1]) of 2.8 µM.
For `COc1cc(Nc2cc(Oc3ccc(C)nc3-c3ccnc4ccccc34)ccn2)cc(OC)c1OC` [Example 170, 4-[6-Methyl-2-(quinolin-4-yl)pyridin-3-yloxy]-N-(3,4,5-trimethoxyphenyl)pyridin-2-amine], the IC50 (human ALK5 [1]) was 0.615 µM.
`Cc1cc(Oc2ccnc(Nc3ccccc3)c2)c(-c2ccccn2)nc1C` [Example 24, 4-(5,6-Dimethyl-2-pyridin-2-yl-pyridin-3-yl)oxy-N-phenyl-pyridin-2-amine] showed an IC50 (human ALK5 [1]) of 0.00417 µM.
`Cc1cc(Oc2ccnc(Nc3ccccn3)c2)c(-c2ccccn2)nc1C` [Example 14, 4-(5,6-Dimethyl-2-pyridin-2-yl-pyridin-3-yl)oxy-N-pyridin-2-yl-pyridin-2-amine] was tested, and the IC50 (human ALK5 [1]) was 0.0255 µM and 0.00856 µM.
`Cc1cc(Oc2ccnc(Nc3ccc(CC#N)cc3)c2)c(-c2ccccn2)nc1C` [Example 74, 2-(4-{[4-(5,6-Dimethyl-2-pyridin-2-ylpyridin-3-yl)oxypyridin-2-yl]-amino}phenyl)acetonitrile] showed an IC50 (human ALK5 [2]) of 0.00488 µM.
With `Cc1ccc(Oc2ccnc(Nc3ccc(CO)cc3)c2)c(-c2ccccn2)n1` [Example 147, (4-{[4-(6-Methyl-2-pyridin-2-ylpyridin-3-yl)oxypyridin-2-yl]-amino}phenyl)methanol] the IC50 (human ALK5 [2]) was 0.00921 µM.
In the case of `COc1ccc(NC(=O)N2CCN(Cc3cccc(Nc4cc(Oc5ccc(C)nc5C)ccn4)c3)CC2)cc1` [Example 179, 4-[(3-{[4-(2,6-Dimethylpyridin-3-yl)oxypyridin-2-yl]-amino}phenyl)methyl]-N-(4-methoxyphenyl)piperazine-1-carboxamide], the IC50 (human ALK5 [2]) is reported as 0.0233 µM.
`Cc1ccc(Oc2ccnc(Nc3ccc(C(=O)NCCN4CC5CCC(C4)O5)cc3)c2)c(C)n1` [Example 218, 4-{[4-(2,6-Dimethylpyridin-3-yl)oxypyridin-2-yl]amino}-N-[2-(8-oxa-3-azabicyclo[3.2.1]octan-3-yl)ethyl]benzamide] showed an IC50 (human ALK5 [2]) of 0.0495 µM.
Compound `COc1cc(Nc2cc(Oc3ccc(C)nc3-c3ccc(F)cc3)ccn2)cc(OC)c1OC` [Example 171, 4-[2-(4-Fluorophenyl)-6-methylpyridin-3-yloxy]-N-(3,4,5-trimethoxyphenyl)pyridin-2-amine] has an IC50 (human ALK5 [2]) of 0.0239 µM.
In the case of `Cc1ccc(Oc2ccnc(Nc3cccc(CN4CCN(C(=O)C5CC5)CC4)c3)c2)c(C)n1` [Example 183, N-(3-{[4-(cyclopropylcarbonyl)piperazin-1-yl]methyl}phenyl)-4-[(2,6-dimethylpyridin-3-yl)oxy]pyridin-2-amine], the IC50 (human ALK5 [2]) is reported as 0.0127 µM.
In the case of `Cc1ccc(Oc2ccnc(Nc3cccc(CN4CCN(C(=O)C5CCOCC5)CC4)c3)c2)c(C)n1` [Example 186, {4-[(3-{[4-(2,6-Dimethylpyridin-3-yl)oxypyridin-2-yl]amino}-phenyl)methyl]piperazin-1-yl}-(oxan-4-yl)methanone], the IC50 (human ALK5 [2]) is reported as 0.0238 µM.
In the case of `Cc1cc(Oc2ccnc(Nc3cccc(C(=O)NCc4ccncc4)c3)c2)c(-c2ccccn2)nc1C` [Example 100, 3-{[4-(5,6-Dimethyl-2-pyridin-2-ylpyridin-3-yl)oxypyridin-2-yl]-amino}-N-(pyridin-4-ylmethyl)benzamide], the IC50 (human ALK5 [2]) is reported as 0.00576 µM.
With `Cc1cc(Oc2ccnc(Nc3cccc(S(N)(=O)=O)c3)c2)c(-c2ccccn2)nc1C` [Example 104, 3-{[4-(5,6-Dimethyl-2-pyridin-2-ylpyridin-3-yl)oxypyridin-2-yl]-amino}benzenesulfonamide] the IC50 (human ALK5 [2]) was 0.0121 µM.
In the case of `CNC(=O)CN1CCN(Cc2cccc(Nc3cc(Oc4ccc(C)nc4C)ccn3)c2)CC1` [Example 191], the IC50 (human ALK5 [2]) is reported as 0.0213 µM.
Work on `Cc1ccc(Oc2ccnc(Nc3ccc(OCC(O)CNC(C)C)cc3)c2)c(C)n1` (stereo not shown) [Example 129, 1-(4-{[4-(2,6-Dimethylpyridin-3-yl)oxypyridin-2-yl]amino}-phenoxy)-3-(propan-2-ylamino)propan-2-ol] yielded an IC50 (human ALK5 [2]) of 0.103 µM.
`Cc1cc(Oc2ccnc(Nc3cccc(C(=O)N4CCCC(C)C4)c3)c2)c(-c2ccccn2)nc1C` (stereo not shown) [Example 101, (3-{[4-(5,6-Dimethyl-2-pyridin-2-ylpyridin-3-yl)oxypyridin-2-yl]-amino}phenyl)-(3-methylpiperidin-1-yl)methanone] was tested, and the IC50 (human ALK5 [2]) was 0.0114 µM.
`Cc1ccc(Oc2ccnc(Nc3cccc(NS(C)(=O)=O)c3)c2)c(C)n1` [Example 128, N-(3-{[4-(2,6-Dimethylpyridin-3-yl)oxypyridin-2-yl]amino}-phenyl)methanesulfonamide] was tested, and the IC50 (human ALK5 [2]) was 0.0321 µM.
`Cc1ccc(Oc2ccnc(Nc3cccc(C(=O)N4CCCC(C(N)=O)C4)c3)c2)c(C)n1` (stereo not shown) [Example 68, 1-(3-{[4-(2,6-Dimethylpyridin-3-yl)oxypyridin-2-yl]amino}-benzoyl)piperidine-3-carboxamide] gave an IC50 (human ALK5 [2]) of 0.00895 µM.
